From patent US20040176349A1, “Antibacterial composition” (priority 2001, published 2004)

Assays:
enterococci = experiment: Checkerboard study, synergy summary of Example 2; assay type: cell-based, Enterococcus; settings: in words
Source text: (§1) The aim of the study was to detect any synergy between PFOB and the other antibiotics. For the purposes of the study, synergy was defined in accordance with the FIC (fractional inhibitory concentration) index, as disclosed by Lorian (1991, In “Antibiotics in Laboratory Medicine” 3rd edition, Eds. Williams & Wilkins; esp. p 434-443). In essence, if the combination of test compounds gives at least a 4-fold reduction in the FIC value for each compound, then a synergy may be considered to exist (i.e. FIC of the combination <0.5=synergy; FIC 0.5-2.0=“indifference”; and FIC >2=antagonism).

E. faecalis ATCC 10541 = experiment: Checkerboard microdilution MIC with PFOB, Table 2; assay type: cell-based
Source text: The aim of the study was to detect any synergy between PFOB and the other antibiotics. For the purposes of the study, synergy was defined in accordance with the FIC (fractional inhibitory concentration) index, as disclosed by Lorian (1991, In “Antibiotics in Laboratory Medicine” 3rd edition, Eds. Williams & Wilkins; esp. p 434-443).

E. faecalis ATCC 29212 = experiment: Checkerboard microdilution MIC with PFOB, Table 2; assay type: cell-based
Source text: as §1
(§2) In Table 2, results in the checkerboard indicating synergy are hatched, and specific optimum synergistic combinations are boxed.

E. faecalis 5659 (vanA) = experiment: Checkerboard microdilution MIC with PFOB, Table 2; assay type: cell-based
Source text: as §1, §2

E.faecalis 78097 (van B) = experiment: Checkerboard microdilution MIC with PFOB, Table 2; assay type: cell-based
Source text: as §1, §2

[1] = Enterococcus faecalis, read-out: MIC (alone) of Partner

**Q.** For `CN[C@H](CC(C)C)C(=O)N[C@H]1C(=O)N[C@@H](CC(N)=O)C(=O)N[C@H]2C(=O)N[C@H]3C(=O)N[C@H](C(=O)N[C@H](C(=O)O)c4cc(O)cc(O)c4-c4cc3ccc4O)[C@H](O)c3ccc(c(Cl)c3)Oc3cc2cc(c3O[C@@H]2O[C@H](CO)[C@@H](O)[C@H](O)[C@H]2O[C@H]2C[C@](C)(N)[C@H](O)[C@H](C)O2)Oc2ccc(cc2Cl)[C@H]1O` [Vancomycin, vancomycin], which “synergy with PFOB” value (enterococci) is on record?
**A.** The value was “less marked, but still significant, synergy”.

**Q.** And the “MIC of partner antibiotic in the presence of PFOB at 0.5 mg/L” value (“MIC of partner antibiotic … at 0.5 mg/L” below) (E. faecalis ATCC 10541; E. faecalis ATCC 10541, PFOB 0.5 mg/L)?
**A.** Its value is 2 µg/mL.

**Q.** What about the “MIC of partner antibiotic in the presence of PFOB at 1 mg/L” value (“MIC of partner antibiotic … at 1 mg/L” below) (E. faecalis ATCC 10541; E. faecalis ATCC 10541, PFOB 1 mg/L) of the same compound?
**A.** The value was 2 µg/mL.

**Q.** What about the “MIC of partner antibiotic in the presence of PFOB at 2 mg/L” value (from here on “MIC of partner antibiotic … at 2 mg/L”) (E. faecalis ATCC 10541; E. faecalis ATCC 10541, PFOB 2 mg/L) of the same compound?
**A.** The value was 2 µg/mL.

**Q.** What about the “MIC of partner antibiotic in the presence of PFOB at 4 mg/L” value (shortened to “MIC of partner antibiotic … at 4 mg/L”) (E. faecalis ATCC 10541; E. faecalis ATCC 10541, PFOB 4 mg/L) of the same compound?
**A.** Its value is 2 µg/mL.

**Q.** What about the “MIC of partner antibiotic in the presence of PFOB at 8 mg/L” value (“MIC of partner antibiotic … at 8 mg/L” below) (E. faecalis ATCC 10541; E. faecalis ATCC 10541, PFOB 8 mg/L) of the same compound?
**A.** Its value is 2 µg/mL.

**Q.** What about the “MIC of partner antibiotic in the presence of PFOB at 16 mg/L” value (from here on “MIC of partner antibiotic … at 16 mg/L”) (E. faecalis ATCC 10541; E. faecalis ATCC 10541, PFOB 16 mg/L) of the same compound?
**A.** Its value is 1 µg/mL.

**Q.** What about the “MIC of partner antibiotic in the presence of PFOB at 32 mg/L” value (“MIC of partner antibiotic … at 32 mg/L” below) (E. faecalis ATCC 10541; E. faecalis ATCC 10541, PFOB 32 mg/L) of the same compound?
**A.** Its value is 1 µg/mL.

**Q.** What about the MIC (E. faecalis ATCC 10541; Enterococcus faecalis, ATCC10541, read-out: MIC (alone) of Partner) of the same compound?
**A.** The MIC was 4 µg/mL.

**Q.** What about the “Synergy FIC” value (E. faecalis ATCC 29212; E. faecalis ATCC 29212, FIC index of PFOB + labelled partner, <0.5 = synergy) of the same compound?
**A.** The value was 0.31.

**Q.** And the “MIC of partner antibiotic … at 0.5 mg/L” value (E. faecalis ATCC 29212; E. faecalis ATCC 29212, PFOB 0.5 mg/L)?
**A.** Its value is 4 µg/mL.

**Q.** What about the “MIC of partner antibiotic … at 1 mg/L” value (E. faecalis ATCC 29212; E. faecalis ATCC 29212, PFOB 1 mg/L) of the same compound?
**A.** Its value is 2 µg/mL.

**Q.** What about the “MIC of partner antibiotic … at 2 mg/L” value (E. faecalis ATCC 29212; E. faecalis ATCC 29212, PFOB 2 mg/L) of the same compound?
**A.** The value was 2 µg/mL.

**Q.** What about the “MIC of partner antibiotic … at 4 mg/L” value (E. faecalis ATCC 29212; E. faecalis ATCC 29212, PFOB 4 mg/L) of the same compound?
**A.** Its value is 2 µg/mL.

**Q.** What about the “MIC of partner antibiotic … at 8 mg/L” value (E. faecalis ATCC 29212; E. faecalis ATCC 29212, PFOB 8 mg/L) of the same compound?
**A.** Its value is 2 µg/mL.

**Q.** What about the “MIC of partner antibiotic … at 16 mg/L” value (E. faecalis ATCC 29212; E. faecalis ATCC 29212, PFOB 16 mg/L) of the same compound?
**A.** The value was 1 µg/mL.

**Q.** What about the “MIC of partner antibiotic … at 32 mg/L” value (E. faecalis ATCC 29212; E. faecalis ATCC 29212, PFOB 32 mg/L) of the same compound?
**A.** The value was 1 µg/mL.

**Q.** And the “MIC of PFOB & Partner: Partner concentration” value (E. faecalis ATCC 29212; E. faecalis ATCC 29212, optimum synergistic combination with PFOB, second figure (partner))?
**A.** Its value is 1 µg/mL.

**Q.** And the MIC (E. faecalis ATCC 29212; Enterococcus faecalis, ATCC29212, read-out: MIC (alone) of Partner)?
**A.** The MIC was 4 µg/mL.

**Q.** What about the “MIC of partner antibiotic … at 0.5 mg/L” value (E. faecalis 5659 (vanA); E. faecalis 5659 (vanA), PFOB 0.5 mg/L) of the same compound?
**A.** Its value is greater than 64 µg/mL.

**Q.** And the “MIC of partner antibiotic … at 1 mg/L” value (E. faecalis 5659 (vanA); E. faecalis 5659 (vanA), PFOB 1 mg/L)?
**A.** Its value is greater than 64 µg/mL.

**Q.** What about the “MIC of partner antibiotic … at 2 mg/L” value (E. faecalis 5659 (vanA); E. faecalis 5659 (vanA), PFOB 2 mg/L) of the same compound?
**A.** The value was greater than 64 µg/mL.

**Q.** What about the “MIC of partner antibiotic … at 4 mg/L” value (E. faecalis 5659 (vanA); E. faecalis 5659 (vanA), PFOB 4 mg/L) of the same compound?
**A.** Its value is greater than 64 µg/mL.

**Q.** What about the “MIC of partner antibiotic … at 8 mg/L” value (E. faecalis 5659 (vanA); E. faecalis 5659 (vanA), PFOB 8 mg/L) of the same compound?
**A.** Its value is greater than 64 µg/mL.

**Q.** And the “MIC of partner antibiotic … at 16 mg/L” value (E. faecalis 5659 (vanA); E. faecalis 5659 (vanA), PFOB 16 mg/L)?
**A.** The value was greater than 64 µg/mL.

**Q.** And the “MIC of partner antibiotic … at 32 mg/L” value (E. faecalis 5659 (vanA); E. faecalis 5659 (vanA), PFOB 32 mg/L)?
**A.** Its value is greater than 64 µg/mL.

**Q.** And the MIC (E. faecalis 5659 (vanA); [1])?
**A.** Its MIC is greater than 64 µg/mL.

**Q.** What about the “Synergy FIC” value (E.faecalis 78097 (van B); E.faecalis 78097 (van B), FIC index of PFOB + labelled partner, <0.5 = synergy) of the same compound?
**A.** Its value is 0.375.

**Q.** And the “MIC of partner antibiotic … at 0.5 mg/L” value (E.faecalis 78097 (van B); E.faecalis 78097 (van B), PFOB 0.5 mg/L)?
**A.** Its value is 64 µg/mL.

**Q.** What about the “MIC of partner antibiotic … at 1 mg/L” value (E.faecalis 78097 (van B); E.faecalis 78097 (van B), PFOB 1 mg/L) of the same compound?
**A.** The value was 64 µg/mL.

**Q.** And the “MIC of partner antibiotic … at 2 mg/L” value (E.faecalis 78097 (van B); E.faecalis 78097 (van B), PFOB 2 mg/L)?
**A.** Its value is 64 µg/mL.

**Q.** What about the “MIC of partner antibiotic … at 4 mg/L” value (E.faecalis 78097 (van B); E.faecalis 78097 (van B), PFOB 4 mg/L) of the same compound?
**A.** The value was 64 µg/mL.

**Q.** And the “MIC of partner antibiotic … at 8 mg/L” value (E.faecalis 78097 (van B); E.faecalis 78097 (van B), PFOB 8 mg/L)?
**A.** Its value is 64 µg/mL.

**Q.** And the “MIC of partner antibiotic … at 16 mg/L” value (E.faecalis 78097 (van B); E.faecalis 78097 (van B), PFOB 16 mg/L)?
**A.** The value was 32 µg/mL.

**Q.** And the “MIC of partner antibiotic … at 32 mg/L” value (E.faecalis 78097 (van B); E.faecalis 78097 (van B), PFOB 32 mg/L)?
**A.** Its value is 16 µg/mL.

**Q.** And the “MIC of PFOB & Partner: Partner concentration” value (E.faecalis 78097 (van B); E.faecalis 78097 (van B), optimum synergistic combination with PFOB, second figure (partner))?
**A.** The value was 32 µg/mL.

**Q.** What about the MIC (E.faecalis 78097 (van B); [1]) of the same compound?
**A.** Its MIC is greater than 64 µg/mL.
